Assay results taken from US11707434B2, “Method for preparing organic solvent-free lyophilized cyclophosphamide” (KOREA UNITED PHARM. INC., priority 2018, dated 2023).

Test: Measurement of porosity (KOPTRI)
Assay type: physicochemical
Description: The porosity measurement was performed by the Korea Polymer Testing & Research Institute (KOPTRI), an accredited international testing agency, by requesting the samples prepared by the present applicant.

For `O=P1(N(CCCl)CCCl)NCCCO1` (stereo not drawn) [Comparison 2, 2-[bis(2-chloroethyl)amino]tetrahydro-2H-1,3,2-oxazaphosphorin-2-oxide], which Apparent density is on record?
The Apparent density was 1.31 g/mL.

What about the Porosity of the same molecule?
Its Porosity is 5.24%.

What about the Average diameter (pore size) of the same molecule?
The Average diameter was 0.02 μm.
